Assay results published in patent publication US7022711B2, “2-(4-Pyridyl)amino-6-dialkoxyphenyl-pyrido[2,3-d]pyrimidin-7-ones” (Warner-Lambert Company, priority 2000, dated 2006).

Columns and labels:
[1] = target: T1, Lck (Homo sapiens, UniProt P06239); assay: Kinase inhibition assay (DELFIA), Lck; assay type: biochemical; settings: 40 μM ATP, kinase domain 20 nM
T1 construct: The kinase domains from FGFR-1, VEGFR-2, Lck, and PDGF were purified from baculoviral vectors expression systems; made in house
Experimental: (§1) The inhibition activity of the compounds in Examples 8, 9, 10, 11, and 12 and Reference Compounds A and B were evaluated using the Dissociated Enhanced Lanthanide Fluoroimmuno Assay (DELFIA) (Frank Loganzo and Carolyn Hardy. A sensitive, time-resolved fluorometric assay for the detection of inhibitors of phosphotyrosine kinases. American Biotechnology Laboratory, December 1998). DELFIA plates (EG&G Wallac, Gaithersburg, Md.) were coated overnight with Poly Glu Tyr (4:1) (Sigma, St. Louis, Mo.) at room temperature, washed (DELFIA wash reagent, EG&G Wallac), and spotted with 1 μL inhibitor dilution or DMSO carrier control per well. In some cases, kinase was autophosphorylated prior to analysis by incubating 45 minutes at 4° C. in the presence of 4 mM ATP and 25 mM MgCl2. A typical 100 μL kinase assay reaction contained 20 mM Tris (pH 7.5), 20 mM MgCl2, 50 mM NaCl, 5 mM DTT, and protease inhibitors (Mini EDTA-free protease inhibitor cocktail tablets, Boehringer Mannheim, Indianapolis, Ind.), 40 μM ATP, and an appropriate concentration of inhibitor. The reaction was allowed to continue for 30 minutes at room temperature. Plates were washed, blocked 30 minutes at room temperature (0.5% bovine serum albumin in DELFIA Assay Buffer, EG&G Wallac), and washed. One hundred microliter europium-conjugated antiphosphotyrosine antibody in DELFIA assay buffer was added to each well. Plates were incubated for 1 hour and decanted. One hundred microliter DELFIA enhancement solution (EG&G Wallac) was added and time-resolved fluorescence of the reactions determined using a VICTOR2 1420 multilable counter (EG&G Wallac). Compounds were tested from 10 through 0.0001 μM. c-Src was (Upstate Biotechnology, Lake Placid, N.Y.) was used at 3 units per reaction. The kinase domains from FGFR-1, VEGFR-2, Lck, and PDGF were purified from baculoviral vectors expression systems and were used in the assays at 20 nM.

[2] = target: T2, VEGFR-2 (Homo sapiens, UniProt P35968); assay: Kinase inhibition assay (DELFIA), VEGF-2; assay type: biochemical; settings: 40 μM ATP, kinase domain 20 nM
T2 construct: The kinase domains from FGFR-1, VEGFR-2, Lck, and PDGF were purified from baculoviral vectors expression systems; made in house
Experimental: as §1, with “DELFIA” for “The inhibition activity of the compounds in Examples 8, 9, 10, 11, and 12 and Reference Compounds A and B were evaluated using the Dissociated Enhanced Lanthanide Fluoroimmuno Assay (DELFIA) (Frank Loganzo and Carolyn Hardy. A sensitive, time-resolved fluorometric assay for the detection of inhibitors of phosphotyrosine kinases. American Biotechnology Laboratory, December 1998). DELFIA”, “One hundred microliter DELFIA enhancement solution (EG&G Wallac) was added and time-resolved fluorescence of the reactions determined using a VICTOR2 1420 multilable counter (EG&G Wallac).” left out

[3] = tested on: Human umbilical vein endothelial cells (HUVECs); assay: Serum stimulated HUVEC cell proliferation (Sulphorhodamine B); assay type: cell-based; settings: for selectivity for serum-stimulated endothelial cell proliferation: HUVEC compared to A90 and C6 tumor cell proliferation
Experimental: (§2) Human umbilical vein endothelial cells (HUVECs) (Clonetics, Palo Alto, Calif.) were seeded at 2000 cells per well in growth medium containing 2% serum (EGM, Clonetics) and allowed to attach overnight (37° C., 5% CO2, 100% humidity). C6 rat glioma cells (ATCC) were seeded at 600 cells per well and incubated in F10 medium (GIBCO, Gaithersburg, Md.) supplemented with 15% horse serum, 2.5% fetal bovine serum, and 1 mM glutamine. A90 human ovarian cells (Dr. Kent Crickard, SUNY/AB Medical School) were seeded at 600 cells per well in RPMI1640 (GIBCO) plus 10% fetal bovine serum. Plates were incubated overnight (37° C., 5% CO2, 100% humidity) to allow the cells to attach. Test compound dilutions were added to the appropriate wells, and the incubation was continued for 4 additional days. Monolayers were fixed in 10% trichloroacetic acid (30 minutes at 4° C.), washed with distilled water, and stained with Sulphorhodamine B (0.075% in 1% acetic acid) (Sigma). Plates were washed in 1% acetic acid, and the bound dye was solubilized in 100 μL unbuffered Tris base. Absorbance was measured at 540 nm using a reference filter wavelength of 630 nm. Inhibitor potency (IC50) versus cellular proliferation was determined, and endothelial cell selectivity was assessed by comparing the inhibition of HUVEC proliferation to A90 and C6 tumor cell proliferation (Table 3).

[4] = target: T3, FGFR-1 (Homo sapiens, UniProt P11362); assay: Kinase inhibition assay (DELFIA), FGFr; assay type: biochemical; settings: 40 μM ATP, kinase domain 20 nM
T3 construct: The kinase domains from FGFR-1, VEGFR-2, Lck, and PDGF were purified from baculoviral vectors expression systems; made in house
Experimental: as §1

[5] = target: T4, c-Src (Homo sapiens, UniProt P12931); assay: Kinase inhibition assay (DELFIA), c-Src; assay type: biochemical; settings: 40 μM ATP, c-Src 3 units per reaction
T4 construct: purchased Upstate Biotechnology, Lake Placid, N.Y
Experimental: as §1

[6] = tested on: A90 human ovarian cells; assay: A90 tumor cell proliferation (Sulphorhodamine B); assay type: cell-based; settings: Homo sapiens, 96 h; 4 days with compound
Experimental: as §2

[7] = tested on: C6 rat glioma cells; assay: C6 tumor cell proliferation (Sulphorhodamine B); assay type: cell-based; settings: Rattus norvegicus, Glioma cell, 96 h; 4 days with compound
Experimental: as §2

[8] = Metabolic stability, human liver S9 fraction; assay type: in vitro ADME; settings: liver S9 fraction; human liver S9, 5 μM, 37° C., 1.0 mM NADPH; read-out: HS9 in vitro metabolic half-life
Experimental: (§3) Compounds were individually incubated (5 μM in DMSO) with human and mice liver S9 fractions in 50 mM KHPO4 buffer at 37° C. in the presence of 1.0 mM NADPH and additional cofactors. At 0, 10, 20, and 40 minutes, 100 μL aliquots were removed and added to 300 μL of acetonitrile. Standard curves were prepared in a similar manner with each compound. Samples were analyzed for parent concentration by LC-MS/MS. The in vitro metabolic half-life was determined from the concentration-time plots using WinNonlin. These in vitro data represent the rate of oxidative, hydrolytic, and conjugative metabolism.

[9] = Metabolic stability, mice liver S9 fraction; assay type: in vitro ADME; settings: mouse, liver S9 fraction; mice liver S9, 5 μM, 37° C., 1.0 mM NADPH; read-out: MS9 in vitro metabolic half-life
Experimental: as §3

[10] = Caco-2 cell transport (permeability) study; settings: human
Experimental: (§4) Cell transport studies were conducted with Caco-2 cells grown on Snapwells™ between 22 and 28 days postseeding. Typically, 10 mM MES buffer (pH 6.5) with 5 mM KCl, 135 mM NaCl, and 1.8 mM CaCl2 was used for the apical side and 10 mM MOPS (pH 7.4) with 5 M KCl, 132 mM NaCl, and 1.8 mM CaCl2 with 5 mM D-glucose was used for the basolateral side. On the day of the experiment, the growth media was aspirated, and the cell monolayers were pre-equilibrated with appropriate buffers at 37° C., and TEER measurements were performed to confirm the integrity of the monolayers. Transepithelial flux measurements were made by mounting the cell monolayers in a side-by-side diffusion chamber system (Precision Instrument Design, Tahoe City, Calif.). Temperature was maintained at 37° C. with a circulating water jacket. The solutions were mixed with gas-lift circulation with 95% oxygen/5% carbon dioxide. […] Donor and receiver samples were collected at selected time intervals for up to 3 hours. […] Test compounds were analyzed using LC-MS/MS methods. Apparent permeability coefficients were calculated using the following equation: Papp=(V·dC/dt)/(A·C0) where V=volume of the receiver solution in mL; A=surface area of the monolayer in cm^2; C0=initial donor concentration in mM; and dC/dt=change of the drug concentration in the receiver chamber over time.

[11] = in vitro; settings: human, Caco-2
Experimental: as §4

T2 sequence (P35968 834-1162 limits assumed, species assumed): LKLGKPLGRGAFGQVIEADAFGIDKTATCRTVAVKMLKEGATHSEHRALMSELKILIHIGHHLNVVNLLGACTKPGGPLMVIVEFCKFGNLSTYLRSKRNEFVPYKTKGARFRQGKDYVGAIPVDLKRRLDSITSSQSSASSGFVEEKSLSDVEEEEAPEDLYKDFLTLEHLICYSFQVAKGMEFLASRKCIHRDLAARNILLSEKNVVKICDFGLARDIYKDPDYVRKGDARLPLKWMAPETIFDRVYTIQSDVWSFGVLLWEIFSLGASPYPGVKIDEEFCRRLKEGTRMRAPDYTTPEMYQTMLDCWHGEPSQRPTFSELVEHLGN
T4 sequence (P12931 whole entry): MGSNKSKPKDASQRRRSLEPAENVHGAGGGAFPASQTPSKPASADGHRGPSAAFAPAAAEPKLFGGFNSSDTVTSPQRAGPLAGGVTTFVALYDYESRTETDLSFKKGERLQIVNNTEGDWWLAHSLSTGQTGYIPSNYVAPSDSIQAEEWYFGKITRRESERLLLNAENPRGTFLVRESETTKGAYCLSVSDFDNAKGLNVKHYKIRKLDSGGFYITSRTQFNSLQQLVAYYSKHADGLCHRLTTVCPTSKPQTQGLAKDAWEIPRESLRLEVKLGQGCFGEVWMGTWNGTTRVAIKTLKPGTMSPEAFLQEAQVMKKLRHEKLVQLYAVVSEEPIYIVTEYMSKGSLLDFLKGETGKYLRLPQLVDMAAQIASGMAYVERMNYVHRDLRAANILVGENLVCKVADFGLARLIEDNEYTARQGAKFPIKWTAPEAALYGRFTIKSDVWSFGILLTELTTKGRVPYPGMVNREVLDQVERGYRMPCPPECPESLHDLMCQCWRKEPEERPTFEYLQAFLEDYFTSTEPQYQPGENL
T3 sequence (P11362 478-767 limits assumed, species assumed): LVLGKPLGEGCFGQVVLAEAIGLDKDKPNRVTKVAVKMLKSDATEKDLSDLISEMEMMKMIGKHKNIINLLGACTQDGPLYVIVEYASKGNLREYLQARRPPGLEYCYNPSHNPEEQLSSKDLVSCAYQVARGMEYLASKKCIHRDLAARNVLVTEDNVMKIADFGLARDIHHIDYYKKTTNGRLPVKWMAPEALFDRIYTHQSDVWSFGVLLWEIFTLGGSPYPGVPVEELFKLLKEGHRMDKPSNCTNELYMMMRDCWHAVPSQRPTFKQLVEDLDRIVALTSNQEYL
T1 sequence (P06239 245-498 limits assumed, species assumed): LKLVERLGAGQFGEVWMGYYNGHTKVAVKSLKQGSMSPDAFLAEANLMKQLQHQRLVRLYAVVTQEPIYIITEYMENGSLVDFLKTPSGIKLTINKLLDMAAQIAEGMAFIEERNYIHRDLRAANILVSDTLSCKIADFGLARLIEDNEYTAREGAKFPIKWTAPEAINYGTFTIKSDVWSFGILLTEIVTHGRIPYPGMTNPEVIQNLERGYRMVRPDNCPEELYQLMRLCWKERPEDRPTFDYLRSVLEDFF

Row | Compound | Ki [1] [µM] | IC50 [2] [µM] | selectivity for serum-stimulated endothelial cell proliferation [3] | IC50 [4] [µM] | IC50 [5] [µM] | melting point [°C] | also measured
1 | CCn1c(=O)c(-c2cc(OC)cc(OC)c2)cc2cnc(Nc3cc(C)nc(C)c3)nc21 [Example 10, 6-(3,5-Dimethoxy-phenyl)-2-(2,6-dimethyl-pyridin-4-ylamino)-8-ethyl-8H-pyrido[2,3-d]pyrimidin-7-one] | 0.74 | 0.001 | selective inhibitors | 0.0008 | > 4 |  | 
2 | CCn1c(=O)c(-c2c(Cl)c(OC)cc(OC)c2Cl)cc2cnc(Nc3ccncc3)nc21 [Example 15, 6-(2,6-Dichloro-3,5-dimethoxy-phenyl)-2-(pyridin-4-ylamino)-8-ethyl-8H-pyrido[2,3-d]pyrimidin-7-one] |  |  |  |  |  | 295.5 to 297 | 
3 | CCn1c(=O)c(-c2cc(OC)cc(OC)c2)cc2cnc(Nc3cc(OC)nc(OC)c3)nc21 [Example 12, 6-(3,5-Dimethoxy-phenyl)-2-(2,6-dimethoxy-pyridin-4-ylamino)-8-ethyl-8H-pyrido[2,3-d]pyrimidin-7-one] |  |  | selective inhibitors |  |  |  | 
4 | CCn1c(=O)c(-c2cc(OC)cc(OC)c2)cc2cnc(Nc3ccnc(Cl)c3)nc21 [Example 11, 6-(3,5-Dimethoxy-phenyl)-2-(2-chloro-pyridin-4-ylamino)-8-ethyl-8H-pyrido[2,3-d]pyrimidin-7-one] | 2.77 | 0.003 | selective inhibitors | 0.0002 | > 4 |  | IC50 [6]: 25 µM; IC50 [7]: 9.68 µM; IC50 ([3]; Homo sapiens, HUVEC, 96 h, 2% serum growth medium, 4 days with compound): 0.013 µM
5 | COc1cc(OC)cc(-c2cc3cnc(Nc4ccncc4)nc3n(C)c2=O)c1 [Example 17, 6-(3,5-Dimethoxy-phenyl)-2-(pyridin-4-ylamino)-8-methyl-8H-pyrido[2,3-d]pyrimidin-7-one] |  |  |  |  |  | 245 to 247 | 
6 | CCN(CC)CCOc1ccc(Nc2ncc3cc(-c4cc(OC)cc(OC)c4)c(=O)n(C)c3n2)cc1 [Reference B, reference compound] | 0.06 | 0.004 |  | 0.002 | 1.34 |  | half-life at 5 μM [8]: 22 min; half-life at 5 μM [9]: 10 min; Papp A→B [10]: 20.1 ×10⁻⁶ cm/s
7 | COCCc1ccc(OCC(O)CNC(C)C)cc1 (stereo not drawn) [metoprolol] |  |  |  |  |  |  | Papp A→B [10]: ~30 ×10⁻⁶ cm/s
8 | CCN(CC)CCOc1ccc(Nc2ncc3cc(-c4c(Cl)cccc4Cl)c(=O)n(C)c3n2)cc1 [Reference A] |  |  |  |  |  |  | Papp A→B [11]: 37.2 ×10⁻⁶ cm/s; half-life at 5 μM [8]: 46 min; half-life at 5 μM [9]: 14 min
9 | COc1cc(OC)cc(-c2cc3cnc(Nc4ccncc4)nc3n(C3CCCC3)c2=O)c1 [Example 16, 6-(3,5-Dimethoxy-phenyl)-2-(pyridin-4-ylamino)-8-cyclopentyl-8H-pyrido[2,3-d]pyrimidin-7-one] |  |  |  |  |  | 283 to 285 | 
10 | CCn1c(=O)c(-c2cc(OC)cc(OC)c2)cc2cnc(Nc3ccnc(C)c3)nc21 [Example 9, 6-(3,5-Dimethoxy-phenyl)-8-ethyl-2-(2-methyl-pyridin-4-ylamino)-8H-pyrido[2,3-d]pyrimidin-7-one] |  |  | selective inhibitors |  |  | > 300 | 
